Experimental data as given in ChEMBL document CHEMBL1142718, “Novel indolylindazolylmaleimides as inhibitors of protein kinase C-beta: synthesis, biological activity, and cardiovascular safety” (J Med Chem, 2005).

What was measured:
[1] = target: T1, Protein kinase C beta type (Homo sapiens, UniProt P05771); assay: Inhibition of human Protein kinase C beta 1 using [gamma-33P]-ATP
[2] = target: T1, Protein kinase C beta type; assay: Inhibition of IL-8 release by HEK293 cells expressing PKC-beta2; type: functional, cell-based
[3] = target: Voltage-gated inwardly rectifying potassium channel KCNH2 (Homo sapiens, UniProt Q12809)
Description: Inhibition of [3H]astemizole binding to Potassium channel HERG

[4] = target: Mitogen-activated protein kinase 1 (Mus musculus, UniProt P63085); type: cell-based, P19
Description: Inhibition of Mitogen-activated protein kinase/extracellular signal-regulated kinase 2 in P19 cells

[5] = target: Protein kinase C alpha type (Homo sapiens, UniProt P17252); assay: Inhibition of human Protein kinase C alpha using [gamma-33P]-ATP
[6] = target: Protein kinase C gamma type (Homo sapiens, UniProt P05129); assay: Inhibition of human Protein kinase C gamma using [gamma-33P]-ATP
[7] = target: Epidermal growth factor receptor (Mus musculus, UniProt Q01279); assay: Inhibition of Epidermal growth factor receptor in P19 cells; type: cell-based
[8] = target: T1, Protein kinase C beta type; assay: Inhibition of human Protein kinase C beta 2 using [gamma-33P]-ATP
[9] = Inhibition of Calcium/calmodulin-dependent protein kinase type II in P19 cells; type: cell-based, Mus musculus
[10] = Inhibition of Protein kinase C epsilon
[11] = target: T2, Protein kinase C zeta type (Homo sapiens) (UniProt Q05513); assay: Inhibition of Protein kinase C zeta at 10 uM
T2 sequence (whole entry): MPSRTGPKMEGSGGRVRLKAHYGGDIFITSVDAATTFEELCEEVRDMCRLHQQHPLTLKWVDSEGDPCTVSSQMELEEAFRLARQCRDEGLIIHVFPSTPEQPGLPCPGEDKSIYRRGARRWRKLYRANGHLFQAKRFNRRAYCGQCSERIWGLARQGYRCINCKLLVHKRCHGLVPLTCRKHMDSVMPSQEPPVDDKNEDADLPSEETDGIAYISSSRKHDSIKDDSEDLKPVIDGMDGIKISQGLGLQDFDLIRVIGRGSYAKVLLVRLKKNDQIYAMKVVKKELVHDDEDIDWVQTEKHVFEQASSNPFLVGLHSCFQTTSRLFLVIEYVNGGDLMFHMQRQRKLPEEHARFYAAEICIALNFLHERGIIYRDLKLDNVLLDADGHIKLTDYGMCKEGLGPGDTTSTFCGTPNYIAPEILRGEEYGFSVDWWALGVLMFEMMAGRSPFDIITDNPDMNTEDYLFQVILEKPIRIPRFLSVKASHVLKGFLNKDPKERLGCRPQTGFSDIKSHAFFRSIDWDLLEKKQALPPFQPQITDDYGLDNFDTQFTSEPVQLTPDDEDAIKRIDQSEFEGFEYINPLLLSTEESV

[12] = target: Protein kinase C delta type (Homo sapiens, UniProt Q05655); assay: Inhibition of Protein kinase C delta
[13] = Inhibition of Casein kinase 1 in P19 cells; type: cell-based, Mus musculus
[14] = target: Platelet-derived growth factor receptor (Mus musculus, UniProt P05622+P26618); assay: Inhibition of Platelet-derived growth factor receptor in P19 cells; type: cell-based
Casein kinase 2 = Casein kinase 2 (Mus musculus, UniProt Q60737+P67871+O54833+Q8CH19); assay: Inhibition of Casein kinase 2 of P19 cells; type: cell-based
[15] = Inhibition of Protein Kinase A in P19 cells; type: cell-based, Mus musculus
Insulin receptor = Insulin receptor (Mus musculus, UniProt P15208); assay: Inhibition of Insulin receptor kinase in P19 cells; type: cell-based
[16] = Inhibition of Vascular endothelial growth factor receptor in P19 cells; type: cell-based, Mus musculus
[17] = target: Cyclin-dependent kinase 1 (Mus musculus, UniProt P11440); assay: Inhibition of Cyclin-dependent kinase 1 in P19 cells; type: cell-based
[18] = target: T3, Protein kinase C zeta type (Homo sapiens, UniProt Q05513); assay: Inhibition of Protein kinase C zeta
T3 sequence (Q05513 whole entry): T2 sequence (whole entry)

Epidermal growth factor receptor, sequence (Q01279 whole entry): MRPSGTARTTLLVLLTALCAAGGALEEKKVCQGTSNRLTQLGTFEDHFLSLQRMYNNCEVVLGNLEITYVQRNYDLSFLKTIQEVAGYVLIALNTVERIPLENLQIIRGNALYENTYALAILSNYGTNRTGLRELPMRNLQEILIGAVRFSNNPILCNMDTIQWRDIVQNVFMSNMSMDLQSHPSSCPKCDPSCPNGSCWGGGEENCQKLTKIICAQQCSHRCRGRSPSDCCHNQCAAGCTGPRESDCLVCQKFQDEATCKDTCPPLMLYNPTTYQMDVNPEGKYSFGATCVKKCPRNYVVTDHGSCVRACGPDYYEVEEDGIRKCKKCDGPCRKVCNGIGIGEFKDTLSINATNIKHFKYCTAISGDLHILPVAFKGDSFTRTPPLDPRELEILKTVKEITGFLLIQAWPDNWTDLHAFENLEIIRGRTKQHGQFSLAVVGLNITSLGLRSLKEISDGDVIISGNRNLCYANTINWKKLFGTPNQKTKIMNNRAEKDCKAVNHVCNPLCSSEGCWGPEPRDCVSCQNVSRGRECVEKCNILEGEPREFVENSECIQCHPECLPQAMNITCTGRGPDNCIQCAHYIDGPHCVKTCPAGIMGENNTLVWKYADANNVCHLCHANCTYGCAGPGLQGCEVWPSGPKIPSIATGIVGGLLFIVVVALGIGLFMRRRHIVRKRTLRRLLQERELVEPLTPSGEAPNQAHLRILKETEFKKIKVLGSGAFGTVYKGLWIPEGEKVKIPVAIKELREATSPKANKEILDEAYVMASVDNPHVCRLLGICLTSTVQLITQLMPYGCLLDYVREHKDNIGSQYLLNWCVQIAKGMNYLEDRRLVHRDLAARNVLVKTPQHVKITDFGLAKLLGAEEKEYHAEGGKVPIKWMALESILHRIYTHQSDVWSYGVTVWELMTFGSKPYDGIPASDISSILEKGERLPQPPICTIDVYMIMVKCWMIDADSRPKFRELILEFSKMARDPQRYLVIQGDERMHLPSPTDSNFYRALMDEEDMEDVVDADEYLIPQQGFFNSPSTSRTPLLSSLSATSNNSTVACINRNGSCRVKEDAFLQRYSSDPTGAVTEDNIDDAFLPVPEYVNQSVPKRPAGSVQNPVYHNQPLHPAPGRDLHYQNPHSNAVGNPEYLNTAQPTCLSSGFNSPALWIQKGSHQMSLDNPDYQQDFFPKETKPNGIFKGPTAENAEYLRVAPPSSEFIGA
Cyclin-dependent kinase 1, sequence (P11440 whole entry): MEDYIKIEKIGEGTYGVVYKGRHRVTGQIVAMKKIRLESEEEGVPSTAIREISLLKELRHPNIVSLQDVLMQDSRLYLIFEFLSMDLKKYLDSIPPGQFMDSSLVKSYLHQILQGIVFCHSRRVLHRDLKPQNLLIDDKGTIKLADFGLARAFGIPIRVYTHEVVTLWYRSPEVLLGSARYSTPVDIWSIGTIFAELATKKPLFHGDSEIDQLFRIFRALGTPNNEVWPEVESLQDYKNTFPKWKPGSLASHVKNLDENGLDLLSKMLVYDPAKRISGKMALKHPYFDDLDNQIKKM
T1 sequence (P05771 whole entry): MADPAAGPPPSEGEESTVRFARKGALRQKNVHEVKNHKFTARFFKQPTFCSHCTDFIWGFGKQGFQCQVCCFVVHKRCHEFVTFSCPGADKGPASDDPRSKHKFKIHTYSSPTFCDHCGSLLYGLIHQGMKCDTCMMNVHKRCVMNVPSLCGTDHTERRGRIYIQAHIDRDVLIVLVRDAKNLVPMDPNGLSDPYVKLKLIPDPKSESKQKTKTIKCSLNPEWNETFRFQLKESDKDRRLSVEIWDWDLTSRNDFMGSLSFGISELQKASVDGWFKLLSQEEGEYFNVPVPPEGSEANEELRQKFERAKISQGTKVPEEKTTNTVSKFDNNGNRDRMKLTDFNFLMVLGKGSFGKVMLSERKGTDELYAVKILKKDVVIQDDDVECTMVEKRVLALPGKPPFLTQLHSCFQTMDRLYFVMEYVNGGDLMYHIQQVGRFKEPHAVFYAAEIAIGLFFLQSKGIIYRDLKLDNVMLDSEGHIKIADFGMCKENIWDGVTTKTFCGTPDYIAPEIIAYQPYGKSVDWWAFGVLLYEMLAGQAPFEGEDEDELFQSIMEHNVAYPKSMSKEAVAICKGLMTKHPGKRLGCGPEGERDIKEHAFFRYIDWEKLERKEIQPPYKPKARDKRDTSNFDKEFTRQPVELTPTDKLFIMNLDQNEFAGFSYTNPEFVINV
Protein kinase C delta type, sequence (Q05655 whole entry): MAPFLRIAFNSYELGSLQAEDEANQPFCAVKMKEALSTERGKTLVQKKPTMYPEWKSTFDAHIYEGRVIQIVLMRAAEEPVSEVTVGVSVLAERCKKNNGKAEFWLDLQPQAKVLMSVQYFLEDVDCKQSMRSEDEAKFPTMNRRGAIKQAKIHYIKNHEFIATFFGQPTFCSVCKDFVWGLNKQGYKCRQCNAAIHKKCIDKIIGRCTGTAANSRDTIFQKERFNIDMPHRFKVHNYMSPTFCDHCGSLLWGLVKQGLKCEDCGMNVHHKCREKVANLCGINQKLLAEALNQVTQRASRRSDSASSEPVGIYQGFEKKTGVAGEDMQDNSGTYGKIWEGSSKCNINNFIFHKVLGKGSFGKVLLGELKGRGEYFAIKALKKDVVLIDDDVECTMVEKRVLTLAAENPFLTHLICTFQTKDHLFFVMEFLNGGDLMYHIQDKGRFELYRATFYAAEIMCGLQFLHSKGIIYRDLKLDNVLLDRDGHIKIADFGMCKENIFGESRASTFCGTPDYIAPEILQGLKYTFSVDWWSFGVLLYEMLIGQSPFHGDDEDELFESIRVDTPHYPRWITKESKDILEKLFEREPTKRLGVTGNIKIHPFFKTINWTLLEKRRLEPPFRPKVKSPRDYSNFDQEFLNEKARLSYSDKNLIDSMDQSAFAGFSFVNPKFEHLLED
Voltage-gated inwardly rectifying potassium channel KCNH2, sequence (Q12809 whole entry): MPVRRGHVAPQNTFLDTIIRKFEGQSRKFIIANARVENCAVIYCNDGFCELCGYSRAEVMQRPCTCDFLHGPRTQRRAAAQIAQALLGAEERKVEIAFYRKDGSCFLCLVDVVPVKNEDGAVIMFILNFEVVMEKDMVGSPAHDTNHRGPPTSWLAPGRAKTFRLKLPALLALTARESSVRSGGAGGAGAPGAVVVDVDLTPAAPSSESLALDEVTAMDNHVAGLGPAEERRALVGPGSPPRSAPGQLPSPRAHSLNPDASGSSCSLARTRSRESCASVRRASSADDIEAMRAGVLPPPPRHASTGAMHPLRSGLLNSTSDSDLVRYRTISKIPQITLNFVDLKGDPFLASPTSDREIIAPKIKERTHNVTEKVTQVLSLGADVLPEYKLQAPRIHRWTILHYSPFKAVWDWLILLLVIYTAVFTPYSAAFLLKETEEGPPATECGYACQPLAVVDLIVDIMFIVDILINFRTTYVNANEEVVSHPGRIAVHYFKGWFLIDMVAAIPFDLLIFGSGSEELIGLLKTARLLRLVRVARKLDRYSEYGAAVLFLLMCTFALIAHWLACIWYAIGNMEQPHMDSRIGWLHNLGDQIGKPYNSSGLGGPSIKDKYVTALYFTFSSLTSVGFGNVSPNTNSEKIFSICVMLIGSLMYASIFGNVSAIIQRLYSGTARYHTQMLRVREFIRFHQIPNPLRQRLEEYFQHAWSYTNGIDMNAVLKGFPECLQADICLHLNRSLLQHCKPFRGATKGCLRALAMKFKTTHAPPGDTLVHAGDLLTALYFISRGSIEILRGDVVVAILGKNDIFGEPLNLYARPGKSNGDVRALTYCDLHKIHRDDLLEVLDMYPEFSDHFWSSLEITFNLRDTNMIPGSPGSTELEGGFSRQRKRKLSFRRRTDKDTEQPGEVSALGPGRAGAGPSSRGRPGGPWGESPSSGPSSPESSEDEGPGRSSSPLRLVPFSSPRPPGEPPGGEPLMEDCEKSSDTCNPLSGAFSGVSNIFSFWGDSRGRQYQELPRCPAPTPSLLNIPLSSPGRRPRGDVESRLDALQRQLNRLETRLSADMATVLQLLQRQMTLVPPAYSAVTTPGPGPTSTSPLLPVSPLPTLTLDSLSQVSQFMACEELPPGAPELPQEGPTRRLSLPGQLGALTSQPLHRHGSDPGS
Mitogen-activated protein kinase 1, sequence (P63085 whole entry): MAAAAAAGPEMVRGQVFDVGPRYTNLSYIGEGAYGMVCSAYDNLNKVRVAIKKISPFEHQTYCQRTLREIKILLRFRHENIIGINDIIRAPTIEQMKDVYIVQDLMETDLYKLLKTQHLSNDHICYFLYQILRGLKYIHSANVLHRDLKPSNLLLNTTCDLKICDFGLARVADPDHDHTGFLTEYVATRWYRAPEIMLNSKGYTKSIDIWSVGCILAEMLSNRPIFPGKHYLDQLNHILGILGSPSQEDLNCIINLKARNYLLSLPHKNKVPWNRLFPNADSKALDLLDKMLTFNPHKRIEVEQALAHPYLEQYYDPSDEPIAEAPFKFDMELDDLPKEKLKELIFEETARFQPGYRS

| IC50 [1] [µM] | IC50 [2] [µM] | IC50 [4] [µM] | IC50 [5] [µM] | IC50 [6] [µM] | IC50 [7] [µM] | IC50 [8] [µM] | IC50 [9] [µM] | IC50 [10] [µM] | inhibition [11] [%] | IC50 [12] [µM] | IC50 [13] [µM] | IC50 [14] [µM] | IC50 (Casein kinase 2) [µM] | IC50 [15] [µM] | IC50 (Insulin receptor) [µM] | IC50 [17] [µM] | IC50 [18] [µM] | Compound | Ki [3] [µM] | IC50 [16] [µM] |
| --- | --- | --- | --- | --- | --- | --- | --- | --- | --- | --- | --- | --- | --- | --- | --- | --- | --- | --- | --- | --- |
| 0.12 | 0.17 |  |  |  |  |  |  |  |  |  |  |  |  |  |  |  |  | O=C1NC(=O)C(c2nn(CCCN3CCCC3)c3ccccc23)=C1c1cn(-c2ccc3ccccc3c2)c2ccccc12 | 0.011 |  |
| 0.015 | 0.075 | > 10 | 0.22 | 0.28 | > 10 | 0.01 | 7 | 0.14 | 57 | 0.086 | > 10 | 2.2 | > 10 | 6.2 | > 10 |  |  | CN(C)CCCn1nc(C2=C(c3cn(-c4cccs4)c4ccccc34)C(=O)NC2=O)c2ccccc21 |  | 5 |
| 0.062 |  |  | 0.32 |  |  | 0.092 |  |  |  |  |  |  |  |  |  |  |  | CN1CCN(CCCn2nc(C3=C(c4cn(-c5ccc6ccccc6c5)c5ccccc45)C(=O)NC3=O)c3ccccc32)CC1 | 0.29 |  |
| 0.033 | 0.024 | > 10 |  | 0.11 | > 10 |  | 6.1 | 0.33 |  | 0.49 | > 10 | 5.9 | > 10 | > 10 | > 10 | 1.3 | 6.2 | CN(C)CCCn1nc(C2=C(c3cn(-c4ccc5ccccc5c4)c4ccccc34)C(=O)NC2=O)c2ccccc21 |  | 1 |
| 0.007 | 0.02 | > 10 |  |  | > 10 |  | > 10 | 0.14 |  | 0.031 | > 10 | 5.9 | > 10 | > 10 | > 10 | 1.6 | 5.7 | CN(C)CCCn1nc(C2=C(c3cn(-c4cnc5ccccc5c4)c4ccccc34)C(=O)NC2=O)c2ccccc21 |  | > 10 |
| 0.46 |  |  | 1 |  |  | 0.22 |  |  |  |  |  |  |  |  |  |  |  | O=C1NC(=O)C(c2cn(-c3cccnc3)c3ccccc23)=C1c1[nH]nc2ccccc12 |  |  |
| 0.19 | 0.072 |  |  |  |  |  |  |  |  |  |  |  |  |  |  |  |  | O=C1NC(=O)C(c2nn(CCCN3CCOCC3)c3ccccc23)=C1c1cn(-c2ccc3ccccc3c2)c2ccccc12 | 0.85 |  |
| 0.019 | 0.082 | > 10 | 0.12 | 0.21 | > 10 |  | 3.8 | 0.33 |  | 0.25 | > 10 | 5.2 | > 10 | > 10 | > 10 | 0.31 | 4.4 | CN(C)CCCn1nc(C2=C(c3cn(-c4cccnc4)c4ccccc34)C(=O)NC2=O)c2ccccc21 |  | 3.7 |
| 0.046 |  |  | 0.15 | 0.37 |  | 0.013 |  |  |  |  |  |  |  |  |  |  |  | CN(C)CCCn1nc(C2=C(c3cn(-c4ccccc4)c4ccccc34)C(=O)NC2=O)c2ccccc21 |  |  |
| 0.086 | 0.63 | > 10 |  |  | > 10 |  | 5.6 | 3.1 |  | 1.5 | > 10 | > 10 | > 10 | > 10 | > 10 | > 10 | > 10 | CN(C)CCCn1nc(C2=C(c3cn(-c4csc5ccccc45)c4ccccc34)C(=O)NC2=O)c2ccccc21 |  | > 10 |
| 0.087 | 0.6 | > 10 | 1.2 | 3.4 | > 10 |  | > 10 | 4.2 |  | 2.2 | > 10 | > 10 | > 10 | > 10 | > 10 | 1.9 | > 10 | CN(C)CCCn1nc(C2=C(c3cn(-c4cccc5ccccc45)c4ccccc34)C(=O)NC2=O)c2ccccc21 |  | 6.9 |

| Compound | IC50 [1] [µM] | IC50 [2] [µM] | IC50 [4] [µM] | IC50 [5] [µM] | IC50 [6] [µM] | IC50 [7] [µM] | IC50 [8] [µM] | IC50 [9] [µM] | IC50 [10] [µM] | inhibition [11] [%] | IC50 [12] [µM] | IC50 [13] [µM] | IC50 [14] [µM] | IC50 (Casein kinase 2) [µM] | IC50 [15] [µM] | IC50 (Insulin receptor) [µM] | IC50 [17] [µM] | IC50 [18] [µM] | Ki [3] [µM] | IC50 [16] [µM] |
| --- | --- | --- | --- | --- | --- | --- | --- | --- | --- | --- | --- | --- | --- | --- | --- | --- | --- | --- | --- | --- |
| CN(C)CCCn1nc(C2=C(c3cn(-c4cncc5ccccc45)c4ccccc34)C(=O)NC2=O)c2ccccc21 | 0.092 | 0.086 |  |  | 0.25 |  |  |  |  |  |  |  |  |  |  |  |  |  |  |  |
| CN[C@@H]1C[C@H]2O[C@@](C)([C@@H]1OC)n1c3ccccc3c3c4c(c5c6ccccc6n2c5c31)C(=O)NC4 [STAUROSPORINE] |  |  |  |  |  |  |  | 0.006 |  |  |  | 1.4 | 0.002 | > 10 | 0.004 |  | 0.008 |  |  | 0.014 |
